From patent publication US7576062B2, “Compounds with growth hormone releasing properties” (Novo Nordisk A/S, priority 1998, dated 2009)

Key:
[1] = tested on: trypsin, chymotrypsin and elastase; assay: Metabolic stability in pancreatic enzyme mix (ESMS, SIM of molecular ion); assay type: in vitro ADME; settings: 0.025 mg/ml, 100 mM ammoniumbicarbonate pH 8.0, 37° C., 24 h in degradation solution, enzyme:substrate approx. 1:5
Procedure: (§1) The solution is left at 37° C. overnight.
(§2) Identification of degradation products furthermore involved the use of plasma desorption mass spectrometry (PDMS) with sample application on nitrocellulose coated targets and standard instrumental settings. The accuracy of the hereby determined masses is generally better than 0.1%.
(§3) Separation and isolation of degradation products was done using a HY-TACH C-18 reverse phase 4.6×105 mm HPLC column (Hewlett-Packard Company, Palo Alto, Calif.) with a standard acetonitril: TFA separation gradient. The HPLC system used was HP1090M (Hewlett-Packard Company, Palo Alto, Calif.).

carboxypeptidase Y and B = assay: Metabolic stability in carboxypeptidase mix (ESMS, SIM of molecular ion); assay type: in vitro ADME; settings: 0.025 mg/ml, 50 mM ammoniumacetate pH 4.5, 37° C., 24 h in degradation solution, enzyme:substrate approx. 1:5
Procedure: as §1, §2, §3

Substance: Glucagon
- Pan. enzyme mix (stability) [1]: − (Unstable (more than 20% decrease in SIM signal after 24 h in degradation solution))
- Carboxy-peptidase mix (stability) (carboxypeptidase Y and B): − (Unstable (more than 20% decrease in SIM signal after 24 h in degradation solution))
